Patent US20230265151A1, “GIP/GLP1 CO-AGONIST COMPOUNDS” (priority 2020, published 2023)
Read-outs that look alike come from different tables or passages of the source. *1 amine or outer side, *2 acyl side, *3 side chain or, on linkers, in order; H or OH if unused. Where a SMILES comes first, the peptide text is derived from it. Side-chain parts run from the residue outwards. [ ]: non-standard residue; d: D form. The star is where a group is joined. αMePhe(2-F) = C[C@](N)(Cc1ccccc1F)C(=O)O; γGlu = O=C(O)[C@H](CCC(=O)[*:2])N[*:1]; C14 diacid = O=C(O)CCCCCCCCCCCCC(=O)*; αMeY = C[C@](N)(Cc1ccc(O)cc1)C(=O)O; αMeL = CC(C)C[C@](C)(N)C(=O)O; Orn = NCCC[C@H](N)C(=O)O; AEEA = NCCOCCOCC(=O)O; Aib = CC(C)(N)C(=O)O

Legend:
Type in all cases: cell-based
hGIPR = target: T1, hGIPR (Homo sapiens, UniProt P48546); experiment: Functional cAMP formation (HTRF) in HEK-293 clonal cells expressing hGIPR, 0.1% bovine casein, without or with 1.0% human serum albumin; conditions: 37° C.; for Emax: percent of maximal response to GIP(1-42)NH2, read-out: hGIPR Emax, % ± SEM; for EC50: cAMP, 0.1% bovine casein (no human serum albumin), geometric mean, read-out: hGIPR EC50, nM (SEM, n)
T1 construct: expressed in transfected cells
T1 sequence (P48546 22-466): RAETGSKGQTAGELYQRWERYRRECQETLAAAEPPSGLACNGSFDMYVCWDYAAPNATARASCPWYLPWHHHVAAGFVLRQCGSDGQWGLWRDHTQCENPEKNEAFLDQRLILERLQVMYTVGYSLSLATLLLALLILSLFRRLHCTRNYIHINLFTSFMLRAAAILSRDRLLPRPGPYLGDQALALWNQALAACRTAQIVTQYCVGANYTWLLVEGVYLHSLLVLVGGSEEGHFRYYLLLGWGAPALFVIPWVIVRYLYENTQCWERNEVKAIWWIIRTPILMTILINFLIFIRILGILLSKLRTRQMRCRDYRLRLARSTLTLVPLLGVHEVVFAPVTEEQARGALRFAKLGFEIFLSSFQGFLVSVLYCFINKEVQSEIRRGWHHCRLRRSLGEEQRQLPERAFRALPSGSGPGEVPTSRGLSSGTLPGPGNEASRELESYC
How it was run: (§1)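 Cells were stimulated with peptide for 30 min at 37° C, then intracellular cAMP was measured by competitive HTRF (665/620 nm ratio) and converted to nM using a cAMP standard curve. Relative EC50 and Emax came from four-parameter logistic fits of percent maximal response against peptide concentration.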

hGLP-1R = hGLP-1R (Homo sapiens, UniProt P43220); experiment: Functional cAMP formation (HTRF) in HEK-293 clonal cells expressing hGLP-1R, 0.1% bovine casein, without or with 1.0% human serum albumin; parameters: expressed in transfected cells; conditions: 37° C.; for EC50: geometric mean, read-out: hGLP-1R EC50, nM (SEM, n); for Emax: percent of maximal response to GLP-1(7-36)NH2, read-out: hGLP-1R Emax, % ± SEM
How it was run: as §1

hGCGR = target: T2, hGCGR (Homo sapiens, UniProt P47871); experiment: Functional cAMP formation (HTRF) in HEK-293 clonal cells expressing hGCGR, 0.1% bovine casein, without or with 1.0% human serum albumin; conditions: 37° C., geometric mean, read-out: hGCGR EC50, nM (SEM, n)
T2 construct: expressed in transfected cells
How it was run: as §1

[1] = HEK293, 0.1% bovine casein and 1.0% human serum albumin
[2] = HEK293, cAMP, 0.1% bovine casein, arithmetic mean
[3] = 0.1% bovine casein and 1.0% human serum albumin
[4] = cAMP, 0.1% bovine casein (no human serum albumin)

T2 sequence (P47871 26-477): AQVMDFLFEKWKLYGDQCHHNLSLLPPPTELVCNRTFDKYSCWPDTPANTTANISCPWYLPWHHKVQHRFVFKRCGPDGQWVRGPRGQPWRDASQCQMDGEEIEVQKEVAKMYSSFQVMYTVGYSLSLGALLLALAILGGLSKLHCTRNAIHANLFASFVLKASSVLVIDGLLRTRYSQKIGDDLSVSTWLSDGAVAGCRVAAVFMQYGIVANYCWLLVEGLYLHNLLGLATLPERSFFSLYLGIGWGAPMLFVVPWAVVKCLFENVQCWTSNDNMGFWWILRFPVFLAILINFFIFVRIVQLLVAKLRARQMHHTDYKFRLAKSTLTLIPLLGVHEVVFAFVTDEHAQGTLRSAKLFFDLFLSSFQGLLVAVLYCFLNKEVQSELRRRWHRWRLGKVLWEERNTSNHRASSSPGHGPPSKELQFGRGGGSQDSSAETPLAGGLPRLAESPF
Chain of hGLP-1R (P43220 24-463): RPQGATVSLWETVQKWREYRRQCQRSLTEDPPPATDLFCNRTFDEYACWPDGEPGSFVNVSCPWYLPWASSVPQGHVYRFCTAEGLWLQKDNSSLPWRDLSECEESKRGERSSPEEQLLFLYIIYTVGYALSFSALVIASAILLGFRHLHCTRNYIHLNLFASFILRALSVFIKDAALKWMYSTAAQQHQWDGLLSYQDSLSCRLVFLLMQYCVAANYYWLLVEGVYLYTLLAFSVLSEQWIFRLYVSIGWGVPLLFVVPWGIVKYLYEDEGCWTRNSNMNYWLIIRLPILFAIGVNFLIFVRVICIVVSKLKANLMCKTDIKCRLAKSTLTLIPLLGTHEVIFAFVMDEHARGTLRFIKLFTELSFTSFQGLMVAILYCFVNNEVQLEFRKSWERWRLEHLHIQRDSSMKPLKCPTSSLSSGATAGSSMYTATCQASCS

SMILES	Emax (hGIPR; [1])	Emax (hGIPR; [2])	EC50 (hGIPR)	EC50 (hGLP-1R; [3])	Emax (hGLP-1R; [1])	Emax (hGLP-1R; [2])	EC50 (hGLP-1R; [4])	EC50 (hGCGR; [3])	EC50 (hGCGR; [4])
CC[C@H](C)[C@H](NC(=O)[C@H](CCCN)NC(=O)[C@H](CC(=O)O)NC(=O)[C@H](CC(C)C)NC(=O)[C@](C)(CC(C)C)NC(=O)[C@@H](NC(=O)[C@H](CO)NC(=O)[C@H](Cc1ccc(OC)cc1)NC(=O)[C@H](CC(=O)O)NC(=O)[C@H](CO)NC(=O)[C@@H](NC(=O)[C@](C)(Cc1ccccc1F)NC(=O)[C@@H](NC(=O)CNC(=O)[C@H](CCC(=O)O)NC(=O)C(C)(C)NC(=O)[C@@H](N)Cc1ccc(O)cc1)[C@@H](C)O)[C@@H](C)O)[C@@H](C)CC)C(=O)N[C@@H](C)C(=O)N[C@@H](CCC(N)=O)C(=O)NC(C)(C)C(=O)N[C@@H](CCCCNC(=O)COCCOCCNC(=O)COCCOCCNC(=O)CC[C@H](NC(=O)CCCCCCCCCCCCC(=O)O)C(=O)O)C(=O)N[C@@H](Cc1ccccc1)C(=O)N[C@H](C(=O)N[C@H](CCC(=O)O)C(=O)N[C@@](C)(Cc1ccc(O)cc1)C(=O)N[C@@H](CC(C)C)C(=O)N[C@H](C(=O)N[C@@H](CCCCNC(=O)COCCOCCNC(=O)COCCOCCNC(=O)CC[C@H](NC(=O)CCCCCCCCCCCCC(=O)O)C(=O)O)C(=O)NCC(=O)NCC(=O)N1CCC[C@H]1C(=O)N[C@@H](CO)C(=O)N[C@@H](CO)C(=O)NCC(=O)N[C@@H](C)C(=O)N1CCC[C@H]1C(=O)N1CCC[C@H]1C(=O)N1CCC[C@H]1C(=O)N[C@@H](CO)C(N)=O)[C@@H](C)CC)[C@@H](C)CC [Example 263]	72.7%	88.6%	0.0214 nM	56.7 nM	95.8%	98.5%	0.294 nM	> 9950 nM	> 9950 nM
CC[C@H](C)[C@H](NC(=O)[C@H](CCCN)NC(=O)[C@H](CC(=O)O)NC(=O)[C@H](CC(C)C)NC(=O)[C@](C)(CC(C)C)NC(=O)[C@@H](NC(=O)[C@H](CO)NC(=O)[C@H](Cc1ccc(OC)cc1)NC(=O)[C@H](CC(=O)O)NC(=O)[C@H](CO)NC(=O)[C@@H](NC(=O)[C@](C)(Cc1ccccc1F)NC(=O)[C@@H](NC(=O)CNC(=O)[C@H](CCC(=O)O)NC(=O)C(C)(C)NC(=O)[C@@H](N)Cc1ccc(O)cc1)[C@@H](C)O)[C@@H](C)O)[C@@H](C)CC)C(=O)N[C@@H](C)C(=O)N[C@@H](CCC(N)=O)C(=O)NC(C)(C)C(=O)N[C@@H](CCCCNC(=O)COCCOCCNC(=O)COCCOCCNC(=O)CC[C@H](NC(=O)CCCCCCCCCCCCC(=O)O)C(=O)O)C(=O)N[C@@H](Cc1ccccc1)C(=O)N[C@H](C(=O)N[C@H](CCC(=O)O)C(=O)N[C@@](C)(Cc1ccc(O)cc1)C(=O)N[C@@H](CC(C)C)C(=O)N[C@H](C(=O)N[C@@H](CCC(=O)O)C(=O)NCC(=O)NCC(=O)N1CCC[C@H]1C(=O)N[C@@H](CO)C(=O)N[C@@H](CO)C(=O)NCC(=O)N[C@@H](C)C(=O)N1CCC[C@H]1C(=O)N1CCC[C@H]1C(=O)N1CCC[C@H]1C(=O)N[C@@H](CO)C(=O)N[C@@H](CCCCNC(=O)COCCOCCNC(=O)COCCOCCNC(=O)CC[C@H](NC(=O)CCCCCCCCCCCCC(=O)O)C(=O)O)C(N)=O)[C@@H](C)CC)[C@@H](C)CC [Example 264] (H-Y[Aib]EGT[αMePhe(2-F)]TSDY(Me)SI[αMeL]LD[Orn]IAQ[Aib]K([AEEA-AEEA-γGlu-C14 diacid])FI[dE][αMeY]LIEGGPSSGAPPPSK([AEEA-AEEA-γGlu-C14 diacid])-NH2)	84.4%	114%	0.0208 nM		105%	113%	0.413 nM	> 9950 nM	> 9950 nM
